Test results published in ChEMBL document CHEMBL3865812, “Selective killing of cancer cells with triterpenoic acid amides - The substantial role of an aromatic moiety alignment” (Eur J Med Chem, 2016).
Calls of active or inactive are those of the source. The rule behind the calls is not given here.

What was measured:
[1] = Cytotoxicity against human 518A2 cells measured after 96 hrs by SRB assay; type: functional, cell-based; conditions: 518A2, 96 h
[2] = Cytotoxicity against human HT-29 cells measured after 96 hrs by SRB assay; type: functional, cell-based; conditions: HT-29, 96 h
[3] = Cytotoxicity against human MCF7 cells measured after 96 hrs by SRB assay; type: functional, cell-based; conditions: MCF7, 96 h
[4] = Cytotoxicity against human A549 cells measured after 96 hrs by SRB assay; type: functional, cell-based; conditions: A549, 96 h
[5] = Cytotoxicity against human A2780 cells measured after 96 hrs by SRB assay; type: functional, cell-based; conditions: A2780, 96 h
[6] = Cytotoxicity against human 8505C cells measured after 96 hrs by SRB assay; type: functional, cell-based
[7] = Cytotoxicity against mouse NIH/3T3 cells measured after 96 hrs by SRB assay; type: toxicity, NIH3T3
A2780 [8] = assay: Induction of apoptosis in human A2780 cells assessed as increase in apoptotic cells at 6 uM measured after 2 days by Annexin V/FITC/propidium iodide staining-based FACS analysis; type: functional, cell-based
A2780 [9] = assay: Induction of apoptosis in human A2780 cells assessed as secondary necrotic cells at 6 uM measured after 2 days by Annexin V/FITC/propidium iodide staining-based FACS analysis; type: functional, cell-based
A2780 [10] = assay: Induction of apoptosis in human A2780 cells assessed as induction of membrane blebbing at 6 uM measured after 40 hrs by acridine orange/propidium iodide staining-based fluorescence microscopic analysis; type: functional, cell-based
A2780 [11] = assay: Induction of apoptosis in human A2780 cells assessed as secondary necrotic cells at 6 uM measured after 40 hrs by acridine orange/propidium iodide staining-based fluorescence microscopic analysis; type: functional, cell-based
[12] = Cell cycle arrest in human A2780 cells assessed as decrease in G1 peak at 6 uM measured after 24 hrs by propidium iodide staining based FACS analysis; type: functional
[13] = Cell cycle arrest in human A2780 cells assessed as accumulation at S-phase at 6 uM measured after 24 hrs by propidium iodide staining based FACS analysis; type: functional
[14] = Cell cycle arrest in human A2780 cells assessed as loss of G2 peak at 6 uM measured after 24 hrs by propidium iodide staining based FACS analysis; type: functional
[15] = Cell cycle arrest in human A2780 cells assessed as decrease in accumulation of cells at S-phase at 6 uM measured after 48 hrs by propidium iodide staining based FACS analysis; type: functional
[16] = Cell cycle arrest in human A2780 cells assessed as sub-G1 peak appearance at 6 uM measured after 48 hrs by propidium iodide staining based FACS analysis; type: functional
A2780 [17] = assay: Induction of apoptosis in human A2780 cells assessed as apoptotic cells at 1.5 uM measured after 48 hrs by Annexin V/FITC/propidium iodide staining-based FACS analysis relative to control; type: functional
A2780 [18] = assay: Induction of apoptosis in human A2780 cells assessed as increase in secondary necrotic cells at 1.5 uM measured after 48 hrs by Annexin V/FITC/propidium iodide staining-based FACS analysis relative to control; type: functional
[19] = Cell cycle arrest in human A2780 cells assessed as decrease in G1 peak at 1.5 uM measured after 24 hrs by propidium iodide staining based FACS analysis; type: functional
[20] = Cell cycle arrest in human A2780 cells assessed as accumulation at S-phase at 1.5 uM measured after 24 hrs by propidium iodide staining based FACS analysis; type: functional
[21] = Cell cycle arrest in human A2780 cells assessed as loss of G2 peak at 1.5 uM measured after 24 hrs by propidium iodide staining based FACS analysis; type: functional
[22] = Cell cycle arrest in human A2780 cells assessed as decrease in accumulation of cells at S-phase at 1.5 uM measured after 48 hrs by propidium iodide staining based FACS analysis; type: functional
[23] = Cell cycle arrest in human A2780 cells assessed as sub-G1 peak appearance at 1.5 uM measured after 48 hrs by propidium iodide staining based FACS analysis; type: functional
A2780 [24] = assay: Selectivity index, ratio of EC50 for mouse NIH/3T3 cells to EC50 for human A2780 cells; type: functional
A2780 [25] = assay: Induction of apoptosis in human A2780 cells assessed as increase in apoptotic cells at 1.5 uM measured after 24 hrs by Annexin V/FITC/propidium iodide staining-based FACS analysis relative to control; type: functional

SMILES | EC50 [1] [nM] | EC50 [2] [nM] | EC50 [3] [nM] | EC50 [4] [nM] | EC50 [5] [nM] | EC50 [6] [nM] | EC50 at 96 h [7] [nM] | Activity (A2780 [8]) | Activity (A2780 [9]) | Activity (A2780 [17]) | Activity (A2780 [18]) | Activity [19] | Activity [20] | Activity [21] | Activity [22] | Activity [23] | further results
CC(=O)O[C@H]1C[C@]2(C)[C@H]3CC=C4[C@@H]5CC(C)(C)CC[C@]5(C(=O)Nc5cncc6ccccc56)CC[C@@]4(C)[C@]3(C)CC[C@H]2C(C)(C)[C@H]1OC(C)=O | 1600 | 2300 | 2400 | 3300 | 1200 | 2600 | > 60000 | Active | Active | – | – | – | – | – | – | – | Activity (A2780 [10]): Active; Activity (A2780 [11]): Active; Activity [12]: Active; Activity [13]: Active; Activity [14]: Active; Activity [15]: Active; Activity [16]: Active
CC(=O)OC[C@@]1(C)[C@@H]2CC[C@]3(C)[C@H](CC=C4[C@@H]5[C@@H](C)[C@H](C)CC[C@]5(C(=O)Nc5cccc6ncccc56)CC[C@]43C)[C@@]2(C)C[C@@H](OC(C)=O)[C@@H]1OC(C)=O | 500 | 800 | 1400 | 1100 | 400 | 900 | 10200 | Active | Active | Active | Active | Active | Active | Active | Active | Active | –
CC(=O)OC[C@@]1(C)[C@@H]2CC[C@]3(C)[C@H](CC=C4[C@@H]5[C@@H](C)[C@H](C)CC[C@]5(C(=O)Nc5cncc6ccccc56)CC[C@]43C)[C@@]2(C)C[C@@H](OC(C)=O)[C@@H]1OC(C)=O | 190 | 220 | 540 | 290 | 80 | – | 3230 | Active | Active | 10% | 45% | Active | Active | Active | Active | Active | Ratio EC50 (A2780 [24]): 40; Activity (A2780 [25]): 20%
